Earlier results in patent US20250041383A1, “MODIFIED CAVEOLIN-1 PEPTIDES FOR THE TREATMENT OF POST-ACUTE COVID-19” (priority 2021, published 2025).
Ends that are not written are not given here.

Test system: lung
Conditions: treatment with the CSP 20-mer; literature

DGIWKASFTTFTVTKYWFYR (not fully specified) [CSP 20-mer, the full-length CSD of caveolin-1, amino acids 82-101]
collagen deposition: reduced | expression of profibrogenic signaling molecules: down-regulation | lung aSMA: reduced | lung epithelial apoptosis: reduced
